Key:
Assay type in all cases: cell-based
[1] = test system: PRMT5 (SDMA) in HAP1 MTAP-intact cell line; test: SDMA in-cell western assay, HAP1 MTAP-intact cell line; conditions: Homo sapiens, HAP1 MTAP-intact cell line (endogenous MTAP), read-out: Hap 1 MTAP intact IC50
Text: (§1) HAP1 MTAP-intact is a cell line in which endogenous levels of MTAP are expressed, and HAP1 MTAP-deleted is an MTAP-null cell line.

[2] = test system: HAP1 MTAP-deleted cell line; test: viability assay for the MTAP-deleted cell line; conditions: Homo sapiens
[3] = test system: PRMT5 (SDMA) in HAP1 MTAP-deleted cell line; test: SDMA in-cell western assay, HAP1 MTAP-deleted cell line; conditions: for IC50 / IC90: Homo sapiens, SDMA in-cell western, HAP1 MTAP-deleted (MTAP-null) cell line; for Hap1 MTAP intact/deleted ratio: ratio of SDMA in-cell western IC50 in HAP1 MTAP-intact to IC50 in HAP1 MTAP-deleted cell line
Text: as §1

| IC50 [1] [nM] | IC50 [3] [nM] | IC90 [3] [nM] | Compound | IC50 [2] [nM] | Hap1 MTAP intact/deleted ratio [3] |
| --- | --- | --- | --- | --- | --- |
| > 50 | 5 to 50 | 75 to 125 | Cc1cc(NC(=O)C(=O)N2C[C@@H](C)N(C(=O)C3(C(F)(F)F)CC3)C[C@@H]2c2cc(Cl)cc(Cl)c2)cnc1N [Compound 62, N-(6-amino-5-methylpyridin-3-yl)-2-((2S,5R)-2-(3,5-dichlorophenyl)-5-methyl-4-(1-(trifluoromethyl)cyclopropanecarbonyl)piperazin-1-yl)-2-oxoacetamide] | < 100 | A (an IC50 ratio greater than or equal to 30 fold) |
| > 50 | 5 to 50 | 75 to 125 | COc1ncc(NC(=O)C(=O)N2C[C@@H](C)N(C(=O)C3(C(F)(F)F)CC3)C[C@@H]2c2ccc(F)c(Cl)c2)cc1C(N)=O [Compound 63, 5-(2-((2S,5R)-2-(3-chloro-4-fluorophenyl)-5-methyl-4-(1-(trifluoromethyl)cyclopropanecarbonyl)piperazin-1-yl)-2-oxoacetamido)-2-methoxynicotinamide] | 100 to 1000 | A (an IC50 ratio greater than or equal to 30 fold) |
| 5 to 50 | < 5 | < 75 | Cc1cc(NC(=O)C(=O)N2C[C@@H](C)N(C(=O)C3(C)CC3)C[C@@H]2c2ccc(Cl)cc2)cnc1N [Compound 65] | < 100 | C (an IC50 ratio of less than 15 fold) |
| > 50 | 5 to 50 | > 125 | Cc1cc(NC(=O)C(=O)N2CCN(C(=O)C3(C(F)(F)F)CC3)[C@H](C)[C@H]2c2ccc(F)c(F)c2)cnc1N [Compound 66] | 100 to 1000 | A (an IC50 ratio greater than or equal to 30 fold) |
| 5 to 50 | < 5 | < 75 | CCc1cc(NC(=O)C(=O)N2C[C@@H](C)N(C(=O)C(C)C)C[C@@H]2c2cccc(OCCN(C)C)c2)cnc1N [Compound 67, N-(6-amino-5-ethylpyridin-3-yl)-2-((2S,5R)-2-(3-(2-(dimethylamino)ethoxy)phenyl)-4-isobutyryl-5-methylpiperazin-1-yl)-2-oxoacetamide] | < 100 | C (an IC50 ratio of less than 15 fold) |
| > 50 | 5 to 50 | 75 to 125 | C[C@@H]1CN(C(=O)C(=O)Nc2cncc3cn[nH]c23)[C@@H](c2ccccc2)CN1C(=O)C(C)(C)CN(C)C [Compound 68, 2-((2S,5R)-4-(3-(dimethylamino)-2,2-dimethylpropanoyl)-5-methyl-2-phenylpiperazin-1-yl)-2-oxo-N-(1H-pyrazolo[4,3-c]pyridin-7-yl)acetamide] | 100 to 1000 | A (an IC50 ratio greater than or equal to 30 fold) |
| > 50 | 5 to 50 | > 125 | COc1ncc(NC(=O)C(=O)N2C[C@@H](C)N(C(=O)C(C)(C)CN(C)C)C[C@@H]2c2ccccc2)cc1C(N)=O [Compound 69] | 100 to 1000 | A (an IC50 ratio greater than or equal to 30 fold) |
| > 50 | 5 to 50 | 75 to 125 | CCc1cc(NC(=O)C(=O)N2C[C@@H](C)N(C(=O)C(C)C)C[C@@H]2c2ccc(C)cc2)cnc1N [Compound 71, N-(6-amino-5-ethylpyridin-3-yl)-2-((2S,5R)-4-isobutyryl-5-methyl-2-(p-tolyl)piperazin-1-yl)-2-oxoacetamide] | < 100 | B (an IC50 ratio greater than or equal to 15 fold but lower than 30 fold) |
| > 50 | 5 to 50 | 75 to 125 | C[C@@H]1CN(C(=O)C(=O)Nc2cnc(N)c(C3COC3)c2)[C@@H](c2ccc(F)cc2)CN1C(=O)C1(C(F)(F)F)CC1 [Compound 72, N-(6-amino-5-(oxetan-3-yl)pyridin-3-yl)-2-((2S,5R)-2-(4-fluorophenyl)-5-methyl-4-(1-(trifluoromethyl)cyclopropanecarbonyl)piperazin-1-yl)-2-oxoacetamide] | < 100 | A (an IC50 ratio greater than or equal to 30 fold) |

Reference: patent US20250282749A1 (Tango Therapeutics, Inc., priority 2022, published 2025)
